Source: US11413269B2, “Compositions for improved NRF2 activation and methods of their use” (PATHWAYS BIOSCIENCE, LLC, priority 2015, dated 2022)

System: Nrf2
Assay: ARE-driven luciferase promoter/reporter assay in stably transfected cell lines
Type: cell-based, human
Settings: low concentrations
Experimental: Briefly, the stably transfected cells of types HepG2 (human liver), AREc32 (human breast), MCF7 (human breast), A549 (human lung), 293T (human kidney), and A172 (human brain) were seeded at low density in 24-well plates and incubated at 37° C. with 10% CO2. […] After an additional 18 h of incubation, the cells were lysed in their wells with 100 μl of a lysing buffer that contains 3.5 mM sodium pyrophosphate to stabilize light output by luciferase. A 20 μl aliquot of cell lysate was added to a small test tube, placed in a BD Monolight 3010 luminometer for background luminescence, and then 50 μl of 1 mM luciferin was injected into the tube. Relative Light Units integrated for 10 sec were measured for each sample.

In the case of O=c1cc(-c2ccc(O)c(O)c2)oc2cc(O)cc(O)c12 [Luteolin, luteolin], the “synergy with combinations of Rosemary extracts and Ginger extracts to activate Nrf2” value is reported as “synergized”.
